Laboratory results reported in patent US7745489B2, “Compositions and methods for inhibition of phospholipase A2 mediated inflammation” (The Regents of the University of California, priority 2002, dated 2010).
Entries after “also recorded” stand apart in the source; their conditions may differ.

Legend:
cPLA2 = molecular target: T1, cPLA2 (Homo sapiens, UniProt P47712); assay: cPLA2 activity on TX-100/PAPC mixed micelles, inhibition by 2-oxoamides; assay type: biochemical; details: for XI(50) (mole fraction) / Highest Conc. (mole fraction) w/ % inhibition: Table 2, iPLA2; for Inhibitory potency relative to OA4 (fold less potent): cPLA2, compared with OA4; for XI(50): mixed micelles TX-100 400 μM, PAPC 97 μM, PIP2 3 μM (0.6 mole %); for Inhibition of cPLA2: result in words
T1 sequence (P47712 1-749): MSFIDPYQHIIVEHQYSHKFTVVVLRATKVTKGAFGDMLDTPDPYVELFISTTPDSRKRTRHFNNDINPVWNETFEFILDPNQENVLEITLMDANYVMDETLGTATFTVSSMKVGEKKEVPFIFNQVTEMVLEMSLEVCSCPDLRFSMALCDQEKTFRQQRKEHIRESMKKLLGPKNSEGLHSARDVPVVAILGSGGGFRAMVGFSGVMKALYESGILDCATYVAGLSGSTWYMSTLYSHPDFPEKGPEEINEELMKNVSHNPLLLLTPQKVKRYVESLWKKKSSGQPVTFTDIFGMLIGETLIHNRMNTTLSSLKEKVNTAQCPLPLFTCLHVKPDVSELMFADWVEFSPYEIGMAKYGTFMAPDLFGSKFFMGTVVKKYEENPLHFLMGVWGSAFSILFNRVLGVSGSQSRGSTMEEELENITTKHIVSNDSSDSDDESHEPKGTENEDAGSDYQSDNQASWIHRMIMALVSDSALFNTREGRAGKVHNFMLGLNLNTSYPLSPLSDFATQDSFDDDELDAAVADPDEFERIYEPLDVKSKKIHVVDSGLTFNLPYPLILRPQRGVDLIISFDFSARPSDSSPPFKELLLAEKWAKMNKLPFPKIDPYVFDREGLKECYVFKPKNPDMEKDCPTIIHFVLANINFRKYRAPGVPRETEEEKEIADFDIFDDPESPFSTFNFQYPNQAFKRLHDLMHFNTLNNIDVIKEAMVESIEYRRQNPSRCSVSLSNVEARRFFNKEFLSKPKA

iPLA2 = molecular target: T2, iPLA2 (Homo sapiens, UniProt O60733); assay: iPLA2 activity mixed micelle assay, inhibition by 2-oxoamides; assay type: biochemical
T2 sequence (O60733 1-806): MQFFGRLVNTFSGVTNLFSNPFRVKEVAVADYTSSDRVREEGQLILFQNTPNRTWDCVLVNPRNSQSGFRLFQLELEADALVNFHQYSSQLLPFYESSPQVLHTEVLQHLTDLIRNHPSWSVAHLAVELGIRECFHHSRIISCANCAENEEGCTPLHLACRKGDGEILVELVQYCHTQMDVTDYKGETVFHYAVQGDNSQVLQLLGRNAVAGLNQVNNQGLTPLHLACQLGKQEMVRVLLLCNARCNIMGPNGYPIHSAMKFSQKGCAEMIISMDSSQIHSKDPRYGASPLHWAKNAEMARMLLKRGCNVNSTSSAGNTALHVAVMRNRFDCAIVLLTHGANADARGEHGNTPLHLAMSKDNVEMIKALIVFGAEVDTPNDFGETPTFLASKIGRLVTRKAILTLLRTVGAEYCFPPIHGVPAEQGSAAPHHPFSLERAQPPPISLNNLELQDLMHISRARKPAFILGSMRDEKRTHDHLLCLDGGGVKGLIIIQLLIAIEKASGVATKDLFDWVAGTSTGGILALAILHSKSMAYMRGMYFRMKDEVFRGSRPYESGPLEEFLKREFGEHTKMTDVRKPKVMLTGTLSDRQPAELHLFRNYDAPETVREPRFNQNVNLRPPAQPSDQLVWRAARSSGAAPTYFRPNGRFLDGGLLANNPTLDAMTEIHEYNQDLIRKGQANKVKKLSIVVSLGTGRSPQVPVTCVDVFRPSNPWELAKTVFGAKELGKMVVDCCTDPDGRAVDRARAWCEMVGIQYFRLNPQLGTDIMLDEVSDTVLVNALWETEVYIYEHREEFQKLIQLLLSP
Source text: All of the data above are provided with respect to XI(50), which is the mole fraction of inhibitor in the total substrate interface required to inhibit the enzyme by 50%. Almost all inhibitors of PLA2's partition into the phospholipid surface, because they usually have a hydrophobic nature that helps them bind to the active site of the PLA2. When these inhibitors partition into the surface, an important physical effect called surface dilution comes into play. In this case, the strength of the interaction of PLA2 and an inhibitor depends not on the bulk concentration of the inhibitor (molar units), but on the surface concentration of the inhibitor (mole fraction units).
PLA2 Activity Assays: Following homoginization and centrifugation, the spinal cord supernatants were assayed for cPLA2 or iPLA2 activity using the group specific assays developed in our laboratory (Yang et al., Biochem; 269: 278-288, 1999). Briefly the cPLA2 assay conditions were: 100 μM lipid PAPC/PIP2 (97/3) doping with 1% ^14C labeled PAPC in 400 μM triton X-100 mixed micelles, 100 mM Hepes, pH 7.5, 0.08 mM CaCl2, 0.1 mg/ml BSA and 2 mM DTT. iPLA2 assay conditions were: 100 μM DPPC doping with 1% ^14C labeled DPPC in 400 μM triton X-100 mixed micelles, 100 mM Hepes, pH 7.5, 5 mM EDTA, and 1 mM ATP. The total volume for each assay is 500 μL: 200 μL lipid, 250 μL assay buffer, 50 μL sample. In each case the amount of calcium or EDTA added was adjusted to account for the addition of EDTA in the lysis buffer to give the final concentrations listed above.
Lipid preparation: Lipid was dried under N2 and lyopholized for at least one hour to remove all traces of chloroform. Lipid was then resuspended in […] and triton X-100 and micelles were created by repeated vortexing and heating in hot water until the solution clarified. Samples were incubated with substrate for one hour at 40° C. The assay was then terminated and fatty acid extracted by the modified Dole assay. The amount of radioactive fatty acid released in the assay was determined by scintillation counting. Following analysis the data for the cPLA2 assay was adjusted for contaminating iPLA2 activity as described by Yang, et al. (Yang, et al., Anal. Biochem. 269: 278-288 (1999).

[1] = Table 3, at 0.020 mole fraction

Structure (SMILES)	XI(50) (mole fraction) (cPLA2)	Inhibition of cPLA2 (cPLA2)	other results
CCCCCCCCCCCCCC(=O)C(=O)N[C@@H](CCCC)CC(=O)O [OA3, (3S)-(2-Oxo-pentadecanoylamino)-heptanoic Acid]	0.027 ± 0.004		Inhibitory potency relative to OA4 (fold less potent) (cPLA2): around 3 fold
CCCCCCCCCCCCCC(=O)C(=O)N[C@@H](CCCC)CCCC(=O)O [OA5, (5S)-5-(2-Oxopentadecanoylamino)-nonanoic Acid]	0.008 ± 0.003		Inhibitory potency relative to OA4 (fold less potent) (cPLA2): essentially equivalent
CCCCCCCCCCC(=O)C(=O)N[C@@H](CCCC)CCCCC(=O)O [OA6, (6S)-6-(2-Oxo-dodecanoylamino)-decanoic Acid]	0.018 ± 0.009		Inhibitory potency relative to OA4 (fold less potent) (cPLA2): around 2 fold
CCCCCCCCCCC(=O)C(=O)N[C@H](CCCC)CCC(=O)O [OA7, (4R)-4-[(2-Oxododecanoyl)amino]octanoic acid]	0.068 ± 0.005		XI(50) (cPLA2): 0.068±0.005 mole fraction
CCNC(=O)C(=O)CC [OA8]			Highest Conc. (mole fraction) w/ % inhibition (cPLA2; at 0.02 mole fraction): 0.02; 22% ± 7%
CCCCCCCCCCCCCC(=O)C(=O)N[C@H](CCC(=O)O)Cc1ccccc1 [OA9, (4R)-4-(2-Oxo-pentadecanoylamino)-5-phenyl-pentanoic Acid]	0.035 ± 0.016		
CCOC[C@H](CCC(=O)O)NC(=O)C(=O)CC [OA10]	0.045 ± 0.007		XI(50) (cPLA2): 0.045±0.007 mole fraction
CCCCCCCCCCOC[C@@H](CCC(=O)O)NC(=O)C(=O)CCCCCCCCCC [OA11, (4R)-5-(Decyloxy)-4-[(2-oxododecanoyl)amino]pentanoic Acid]	0.047 ± 0.006		XI(50) (cPLA2): 0.047±0.006 mole fraction
CCCCCCCCCCCCCC(=O)C(=O)N[C@H](CCC(=O)O)CC(C)C [OA12, (4R)-6-Methyl-4-(2-oxo-pentadecanoylamino)-heptanoic Acid]	0.017 ± 0.006		
CCCCCCCCCCC(=O)C(=O)N[C@H](CCC(=O)O)CC(C)C [OA13, (4R)-6-Methyl-4-(2-oxo-dodecanoylamino)-heptanoic Acid]	0.033 ± 0.013		
CCCCCCCCCCCCCCC(=O)C(=O)N[C@@H](CCC(=O)O)C(=O)NCCCCCCCCCC [OA15, 4-Decylcarbamoyl-4-(S)-(2-oxo-hexadecanoylamino)-butyric Acid]	0.044 ± 0.007	moderate level of inhibition	
CCCCCCCCCCC(=O)C(=O)N[C@@H](CCC(=O)O)COC(=O)NCCCCCCCC [OA16, 5-octylcarbamoyloxy-4-(S)-(2-oxo-dodecanoylamino)-pentanoic Acid]		essentially no measurable inhibition	Highest Conc. (mole fraction) w/ % inhibition (cPLA2; at 0.091 mole fraction): 0.091, 60%
CCCCCCC(=O)C(=O)N[C@H](CCC(=O)O)Cc1ccccc1 [OA17, (4R)-4-(2-Oxo-octanoylamino)-5-phenyl-pentanoic Acid]			Highest Conc. (mole fraction) w/ % inhibition (cPLA2; at 0.091 mole fraction): 0.091; 24%
CCCCCCCCCCCCCC(=O)C(=O)N1CCCC1CCC(=O)O (stereo not shown) [OA18, 3-[1-(2-Oxo-pentadecanoyl)-pyrrolidin-2-yl]propionic Acid]			Highest Conc. (mole fraction) w/ % inhibition (cPLA2; at 0.091 mole fraction): 0.091; 24%
CCC(=O)C(=O)NCCCC(=O)OC [OA19]		no inhibitory activity; also recorded: no measurable inhibition	XI(50) (mole fraction) (iPLA2; Table 3): 0.0158 ± .0009 mole fraction
COC(=O)CCCNC(=O)C(=O)CCCCc1ccccc1 [OA20]		do not inhibit	Highest Conc. (mole fraction) w/ % inhibition (iPLA2; Table 3, at 0.091 mole fraction): 0.091: 55% ± 4%
CCC(=O)C(N)=O [OA21]			Highest Conc. (mole fraction) w/ % inhibition (iPLA2; [1]): 0.020: 38% ± 6%
CCNC(=O)C(=O)CC [OA22]			Highest Conc. (mole fraction) w/ % inhibition (iPLA2; [1]): 0.020: 31% ± 6%
CCC/C=C\CCNC(=O)C(=O)CC [OA23]			Highest Conc. (mole fraction) w/ % inhibition (iPLA2; [1]): 0.020: 43% ± 4%
CCC/C=C\CCNC(=O)C(=O)CC [OA24]			Highest Conc. (mole fraction) w/ % inhibition (iPLA2; [1]): 0.020: 60% ± 6%
CCCCCCCCCCC(=O)C(=O)N[C@@H](CCC(=O)O)C(=O)NCC [OA29, 4-Ethylcarbamoyl-4-(S)-(2-oxo-dodecanoylamino)-butyric Acid]		did not inhibit; also recorded: essentially no measurable inhibition	
CCCCCCCCCCC(=O)C(=O)N[C@@H](CCC(=O)O)COC(=O)NCC [OA30, 5-ethylcarbamoyloxy-4-(S)-(2-oxo-dodecanoylamino)-pentanoic Acid]		does not inhibit; also recorded: essentially no measurable inhibition	
CCCCCCCCCCC(=O)C(=O)N[C@H](CCC(=O)O)C(=O)NCC [OA31, 4-Ethylcarbamoyl-4-(R)-(2-oxo-dodecanoylamino)-butyric Acid]		essentially no measurable inhibition	
CCCCCCCCCCC(=O)C(=O)N[C@H](CCC(=O)O)COC(=O)NCC [OA32, 5-ethylcarbamoyloxy-4-(R)-(2-oxo-dodecanoylamino)-pentanoic Acid]		essentially no measurable inhibition	
COC(=O)CCCNC(=O)C(=O)CCCc1ccccc1 [OA34]		do not inhibit	
O=C(O)CCCNC(=O)C(=O)CCCCc1ccccc1 [OA35, 4-(2-Oxo-6-phenyl-hexanoylamino)-butyric Acid]		lack of inhibition	
O=C(O)CCCNC(=O)C(=O)CCCc1ccccc1 [OA36, 4-(2-Oxo-5-phenyl-pentanoylamino)-butyric Acid]		lack of inhibition	
